Laboratory results taken from patent US20220184072A1 (priority 2019, published 2022).

Key:
[1] = morphine 30 mg/kg orally twice per day
[2] = test system: TH (tyrosine hydroxylase); assay: CNS phosphoprotein profile, TH; type: in vivo; settings: mice nucleus accumbens; Example 1 3 mg/kg at 30 or 60 minutes; haloperidol 2 mg/kg
Method: A comprehensive molecular phosphorylation study is also carried out to examine the central nervous system (CNS) profile of the compound of Example 1. The extent of protein phosphorylation for selected key central nervous system proteins is measured in mice nucleus accumbens.
Mice were killed 30 minutes to 2 hours post-injection by focused microwave cranial irradiation, which preserves brain phosphoprotein as it exists at the time of death. Nucleus accumbens was then dissected from each mouse brain, sliced and frozen in liquid nitrogen. Samples were further prepared for phosphoprotein analysis via SDS-PAGE electrophoresis followed by phosphoprotein-specific immunoblotting, as described in Zhu H, et al., Brain Res. 2010 Jun. 25; 1342:11-23. Phosphorylation at each site was quantified, normalized to total levels of the protein (non-phosphorylated), and expressed as percent of the level of phosphorylation in vehicle-treated control mice.

Row | SMILES | tolerance and dependence [1] | increase in TH phosphorylation at Ser40 [2]
1 | CN1CC[C@]23c4c5ccc(O)c4O[C@H]2[C@@H](O)C=C[C@H]3[C@H]1C5 [Morphine] | clear signs of tolerance and dependence | 
2 | O=C(CCCN1CCC(O)(c2ccc(Cl)cc2)CC1)c1ccc(F)cc1 [haloperidol] |  | greater than 400%
3 | Cc1nc2n(c(=O)c1CCN1CCC(c3noc4cc(F)ccc34)CC1)CCCC2 [risperidone] |  | greater than 500%
